In brackets after ≈: the same amount, converted by molar mass.
Columns and labels:
MDCK [1] = assay: cells; details: Canis lupus familiaris
Vero [2] = assay: Inhibitory effect on replication of RNA virus cell morphology in Vero cell line.; assay type: functional, cell-based; details: Chlorocebus sabaeus
MT4 [3] = assay: Inhibitory effect on replication of RNA virus cell growth in MT-4 cell line.; assay type: functional, cell-based; details: Homo sapiens
Vero [4] = assay: Inhibitory effect on replication of RNA virus TV in Vero cell line.; assay type: functional, cell-based; details: Chlorocebus sabaeus
HEL [5] = assay: Inhibitory effect on replication of DNA virus CMV (Davis) on HEL cell line.; assay type: functional, cell-based; details: Homo sapiens
HeLa [6] = assay: Inhibitory effect on replication of RNA virus RSV in HeLa cell line; assay type: functional, cell-based; details: Homo sapiens
HEL [7] = assay: Inhibitory effect on replication of DNA virus Cell growth on HEL cell line.; assay type: functional, cell-based; details: Homo sapiens
PRK [8] = assay: Inhibitory effect on replication of RNA virus VSV in PRK cell line.; assay type: functional, cell-based; details: Oryctolagus cuniculus
HeLa [9] = assay: Inhibitory effect on replication of RNA virus coxsB-4 in HeLa cell line.; assay type: functional, cell-based; details: Homo sapiens
Vero [10] = assay: Inhibitory effect on replication of RNA virus reo-1 in Vero cell line.; assay type: functional, cell-based; details: Chlorocebus sabaeus
HEL [11] = assay: Inhibitory effect on replication of DNA virus VZV (Oka) on HEL cell line.; assay type: functional, cell-based; details: Homo sapiens
MDCK [12] = assay: cells; details: Canis lupus familiaris; remark: listed apart in the source
MDCK [13] = assay: Inhibitory effect on replication of RNA virus cell morphology in MDCK cell line.; assay type: functional, cell-based; details: Canis lupus familiaris
MT4 [14] = assay: Inhibitory effect on replication of RNA virus HIV-1 in MT-4 cell line.; assay type: functional, cell-based; details: Homo sapiens
MT4 [15] = assay: Inhibitory effect on replication of RNA virus HIV-2 in MT-4 cell line.; assay type: functional, cell-based; details: Homo sapiens
HeLa [16] = assay: Inhibitory effect on replication of RNA virus VSV in HeLa cell line.; assay type: functional, cell-based; details: Homo sapiens
HEL [17] = assay: Inhibitory effect on replication of DNA virus CMV (AD-169) on HEL cell line.; assay type: functional, cell-based; details: Homo sapiens
HeLa [18] = assay: Inhibitory effect on replication of RNA virus cell morphology in HeLa cell line.; assay type: functional, cell-based; details: Homo sapiens
HEL [19] = assay: Inhibitory effect on replication of DNA virus TK-VZV (07-1) on HEL cell line.; assay type: functional, cell-based; details: Homo sapiens
Vero [20] = assay: Inhibitory effect on replication of RNA virus JV in Vero cell line.; assay type: functional, cell-based; details: Chlorocebus sabaeus
PRK [21] = assay: Inhibitory effect on replication of RNA virus cell morphology in PRK cell line.; assay type: functional, cell-based; details: Oryctolagus cuniculus
Vero [22] = assay: Inhibitory effect on replication of RNA virus PV-3 in Vero cell line.; assay type: functional, cell-based; details: Chlorocebus sabaeus
[23] = Inhibitory effect on replication of DNA virus HSV-1 (KOS) in PRK cell line.; assay type: functional, cell-based; details: Oryctolagus cuniculus
PRK [24] = assay: Inhibitory effect on replication of DNA virus VV on PRK cell line.; assay type: functional, cell-based; details: Oryctolagus cuniculus
PRK [25] = assay: Inhibitory effect on replication of DNA virus Cell morphology on PRK cell line; assay type: functional, cell-based; details: Oryctolagus cuniculus
HeLa [26] = assay: cells; details: Homo sapiens
Vero [27] = assay: Inhibitory effect on replication of RNA virus SFV in Vero cell line; assay type: functional, cell-based; details: Chlorocebus sabaeus
Vero [28] = assay: Inhibitory effect on replication of RNA virus coxsB-4 in Vero cell line; assay type: functional, cell-based; details: Chlorocebus sabaeus
Vero [29] = assay: Inhibitory effect on replication of RNA virus SV in Vero cell line.; assay type: functional, cell-based; details: Chlorocebus sabaeus
Vero [30] = assay: Inhibitory effect on replication of RNA virus measles on Vero cell line.; assay type: functional, cell-based; details: Chlorocebus sabaeus
HEL [31] = assay: Inhibitory effect on replication of DNA virus TK-VZV (YSR) on HEL cell line.; assay type: functional, cell-based; details: Homo sapiens
[32] = Inhibitory effect on replication of DNA virus HSV-2 (G) in PRK cell line.; assay type: functional, cell-based; details: Oryctolagus cuniculus
HEL [33] = assay: Inhibitory effect on replication of DNA virus VZV (YS) on HEL cell line.; assay type: functional, cell-based; details: Homo sapiens
MT4 [34] = assay: Inhibitory effect on replication of DNA virus RNA virus HIV-1 in MT-4 cell line.; assay type: functional, cell-based; details: Homo sapiens
MT4 [35] = assay: Inhibitory effect on replication of DNA virus RNA virus HIV-2 in MT-4 cell line.; assay type: functional, cell-based; details: Homo sapiens
Vero [36] = assay: Inhibitory effect on replication of RNA virus RNA synthesis in Vero cell line.; assay type: functional, cell-based; details: Chlorocebus sabaeus
Vero [37] = assay: Inhibitory effect on replication of RNA virus protein synthesis in Vero cell line.; assay type: functional, cell-based; details: Chlorocebus sabaeus

Structure (SMILES) | IC50 (MDCK [1]) [µg/mL] | IC50 (Vero [2]) [µg/mL] | IC50 (MT4 [3]) [µg/mL] | IC50 (Vero [4]) [µg/mL] | IC50 (HEL [5]) [µg/mL] | IC50 (HeLa [6]) [µg/mL] | IC50 (PRK [8]) [µg/mL] | IC50 (HeLa [9]) [µg/mL] | IC50 (Vero [10]) [µg/mL] | IC50 (MDCK [12]) [µg/mL] | IC50 (MDCK [13]) [µg/mL] | IC50 (HeLa [16]) [µg/mL] | IC50 (HEL [17]) [µg/mL] | IC50 (HeLa [18]) [µg/mL] | IC50 (Vero [20]) [µg/mL] | IC50 (PRK [21]) [µg/mL] | IC50 (Vero [22]) [µg/mL] | IC50 [23] [µg/mL] | IC50 (PRK [24]) [µg/mL] | IC50 (PRK [25]) [µg/mL] | further results
COCC1=C[C@@H](n2cnc3c(N)ncnc32)[C@H](O)[C@@H]1O | > 100 | 400 (≈ 1440 µM) | 45 (≈ 162 µM) | 20 (≈ 72.1 µM) | 25 (≈ 90.2 µM) | 100 (≈ 361 µM) | 20 (≈ 72.1 µM) | > 200 | 10 (≈ 36.1 µM) | > 100 | > 100 | 150 (≈ 541 µM) | 40 (≈ 144 µM) | > 400 | 20 (≈ 72.1 µM) | > 400 | 70 (≈ 252 µM) | > 400 | 20 (≈ 72.1 µM) | > 400 | IC50 (HEL [7]): 200 µg/mL (≈ 721 µM); IC50 (HEL [11]): 200 µg/mL (≈ 721 µM); IC50 (MT4 [14]): > 40 µg/mL; IC50 (MT4 [15]): > 40 µg/mL; IC50 (HEL [19]): 100 µg/mL (≈ 361 µM); IC50 (HeLa [26]): > 200 µg/mL; IC50 (Vero [27]): > 400 µg/mL; IC50 (Vero [28]): > 400 µg/mL; IC50 (Vero [29]): 70 µg/mL (≈ 252 µM); IC50 (Vero [30]): 40 µg/mL (≈ 144 µM); IC50 (HEL [31]): 60 µg/mL (≈ 216 µM); IC50 [32]: > 400 µg/mL; IC50 (HEL [33]): 300 µg/mL (≈ 1080 µM)
C=CC1=C[C@@H](n2cnc3c(N)ncnc32)[C@H](O)[C@@H]1O | > 100 | 400 (≈ 1540 µM) | 6 (≈ 23.1 µM) | 10 (≈ 38.6 µM) | 17 (≈ 65.6 µM) | 100 (≈ 386 µM) | 20 (≈ 77.1 µM) | > 400 | 70 (≈ 270 µM) | > 100 | > 100 | 300 (≈ 1160 µM) | 18 (≈ 69.4 µM) | > 400 | 8 (≈ 30.9 µM) | > 400 | 40 (≈ 154 µM) | > 200 | 20 (≈ 77.1 µM) | > 400 | IC50 (MT4 [34]): > 8 µg/mL; IC50 (MT4 [35]): > 8 µg/mL; IC50 (Vero [36]): 14 µg/mL (≈ 54 µM); IC50 (HeLa [26]): > 400 µg/mL; IC50 (Vero [27]): > 200 µg/mL; IC50 (Vero [28]): > 200 µg/mL; IC50 (Vero [37]): 47 µg/mL (≈ 181 µM); IC50 (Vero [29]): > 200 µg/mL; IC50 (Vero [30]): 40 µg/mL (≈ 154 µM); IC50 [32]: > 200 µg/mL

Source: ChEMBL document CHEMBL1126278, “New neplanocin analogues. 1. Synthesis of 6'-modified neplanocin A derivatives as broad-spectrum antiviral agents” (J Med Chem, 1992)
